Laboratory results reported in ChEMBL document CHEMBL1201862, “PubChem BioAssay data set” (2004).
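In this assay, cells in 96-well plates receive the compound at five concentrations for 48 hours. Endpoints are linearly interpolated between the surrounding concentrations. Abbreviation: GI50, concentration required for 50% inhibition of growth.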 Activity calls are given as the source filed them. No stated cut-off is given here; in the data, active = GI50 up to about 1.1 µM and inactive = higher.

Legend:
Experiment in all cases: inhibition of tumour cell growth, NCI panel, 48 h
UACC-257 = tested on: UACC-257
OVCAR-5 = tested on: OVCAR-5
HCC 2998 = tested on: HCC 2998
TK-10 = tested on: TK-10
SNB-75 = tested on: SNB-75
HOP-62 = tested on: HOP-62
UACC-62 = tested on: UACC-62
786-0 = tested on: 786-0
A549 = tested on: A549
M14 = tested on: M14
COLO 205 = tested on: COLO 205
SW-620 = tested on: SW-620
UO-31 = tested on: UO-31
XF498 = tested on: XF498
RXF 631 = tested on: RXF 631
OVCAR-8 = tested on: OVCAR-8
OVCAR-3 = tested on: OVCAR-3
RPMI-8226 = tested on: RPMI-8226
EKVX = tested on: EKVX
M19-MEL = tested on: M19-MEL
LXFL 529 = tested on: LXFL 529
CAKI-1 = tested on: CAKI-1
IGROV-1 = tested on: IGROV-1
SK-OV-3 = tested on: SK-OV-3
SR = tested on: SR
SF-295 = tested on: SF-295
HOP-18 = tested on: HOP-18
DMS-273 = tested on: DMS-273
SNB-19 = tested on: SNB-19
KM-20L2 = tested on: KM-20L2
CCRF-CEM = tested on: CCRF-CEM
ACHN = tested on: ACHN
HCT-116 = tested on: HCT-116
HCT-15 = tested on: HCT-15
U-251 = tested on: U-251
NCI-H226 = tested on: NCI-H226
A498 = tested on: A498
SF-268 = tested on: SF-268
SK-MEL-28 = tested on: SK-MEL-28
SK-MEL-2 = tested on: SK-MEL-2
LOX IMVI = tested on: LOX IMVI
KM12 = tested on: KM12
SF-539 = tested on: SF-539
HL-60 = tested on: HL-60
Malme-3M = tested on: Malme-3M
DLD-1 = tested on: DLD-1
NCI-H23 = tested on: NCI-H23
SNB-78 = tested on: SNB-78
NCI-H460 = tested on: NCI-H460
RXF 393 = tested on: RXF 393
SN12C = tested on: SN12C
SK-MEL-5 = tested on: SK-MEL-5
DMS-114 = tested on: DMS-114
K562 = tested on: K562
MOLT-4 = tested on: MOLT-4
HOP-92 = tested on: HOP-92
OVCAR-4 = tested on: OVCAR-4
NCI-H522 = tested on: NCI-H522
HT-29 = tested on: HT-29

With `COc1c2c(c(O)c3c4c(c(C)cc13)C1OC3(C(OC)OC5CC(C)(O)C(OC6CC(C)(O)C(O)C(C)O6)C(C)O5)OC1C(OC)(O4)C31CO1)C(=O)C(O)CC2OC1CC(C)(O)C(OC(C)=O)C(C)O1` (centres undefined) the GI50 (UACC-257) was < 10 nM (active), the GI50 (OVCAR-5) was < 10 nM (active) and the GI50 (HCC 2998) was < 10 nM (active). The GI50 (TK-10) was < 10 nM (active), the GI50 (SNB-75) was < 10 nM (active) and the GI50 (HOP-62) was < 10 nM (active). For the same compound, the GI50 (UACC-62) was < 10 nM (active), the GI50 (786-0) was < 10 nM (active) and the GI50 (A549) was < 10 nM (active). The GI50 (M14) was < 10 nM (active), the GI50 (COLO 205) was < 10 nM (active) and the GI50 (SW-620) was < 10 nM (active). The GI50 (UO-31) was 35.6 nM (active), the GI50 (XF498) was < 10 nM (active) and the GI50 (RXF 631) was < 10 nM (active). The GI50 (OVCAR-8) was < 10 nM (active), the GI50 (OVCAR-3) was < 10 nM (active) and the GI50 (RPMI-8226) was < 10 nM (active). The GI50 (EKVX) was < 10 nM (active), the GI50 (M19-MEL) was < 10 nM (active) and the GI50 (LXFL 529) was < 10 nM (active). The GI50 (CAKI-1) was 52 nM (active), the GI50 (IGROV-1) was < 10 nM (active) and the GI50 (SK-OV-3) was < 10 nM (active). For the same compound, the GI50 (SR) was < 10 nM (active), the GI50 (SF-295) was < 10 nM (active) and the GI50 (HOP-18) was < 10 nM (active). For the same compound, the GI50 (DMS-273) was < 10 nM (active), the GI50 (SNB-19) was < 10 nM (active) and the GI50 (KM-20L2) was < 10 nM (active). The GI50 (CCRF-CEM) was < 10 nM (active), the GI50 (ACHN) was < 11.2 nM (active) and the GI50 (HCT-116) was < 10 nM (active). The GI50 (HCT-15) was 76.7 nM, the GI50 (U-251) was < 10 nM (active) and the GI50 (NCI-H226) was < 10 nM (active). For the same compound, the GI50 (A498) was < 10 nM (active), the GI50 (SF-268) was < 10 nM (active) and the GI50 (SK-MEL-28) was < 10 nM (active). The GI50 (SK-MEL-2) was < 10 nM (active), the GI50 (LOX IMVI) was < 10 nM (active) and the GI50 (KM12) was < 10 nM (active). For the same compound, the GI50 (SF-539) was < 10 nM (active), the GI50 (HL-60) was < 10 nM (active) and the GI50 (Malme-3M) was < 10 nM (active). For the same compound, the GI50 (DLD-1) was 10 nM (active), the GI50 (NCI-H23) was < 10 nM (active) and the GI50 (SNB-78) was < 10 nM (active). The GI50 (NCI-H460) was < 10 nM (active), the GI50 (RXF 393) was < 10 nM (active) and the GI50 (SN12C) was < 10 nM (active). The GI50 (SK-MEL-5) was < 10 nM (active), the GI50 (DMS-114) was < 10 nM (active) and the GI50 (K562) was < 10 nM (active). The GI50 (MOLT-4) was < 10 nM (active), the GI50 (HOP-92) was < 10 nM (active) and the GI50 (OVCAR-4) was < 10 nM (active). The GI50 (NCI-H522) was < 10 nM (active) and the GI50 (HT-29) was < 10 nM (active).
